Measurements: PubChem BioAssay (NCI)
In brackets after ≈: the same amount, converted by molar mass.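 Each compound was tested at five concentrations against cells in 96-well plates for 48 hours. Here, GI50 denotes the concentration required for 50% inhibition of growth. TGI denotes the concentration required for complete inhibition of growth.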 Activity calls are given as the source filed them. No stated cut-off is given here; in the data, active means GI50 below about 0.43 µM; inactive means the rest.

Columns and labels:
Experiment in all cases: NCI tumour cell line growth inhibition, 48 h
A498 renal = test system: A498 renal
A549 NSCLC = test system: A549 NSCLC
CAKI-1 renal = test system: CAKI-1 renal
CCRF-CEM leukemia = test system: CCRF-CEM leukemia
COLO 205 colon = test system: COLO 205 colon
DLD-1 colon = test system: DLD-1 colon
DMS 114 small cell lung = test system: DMS 114 small cell lung
DMS 273 small cell lung = test system: DMS 273 small cell lung
EKVX NSCLC = test system: EKVX NSCLC
HCC-2998 colon = test system: HCC-2998 colon
HCT-116 colon = test system: HCT-116 colon
HCT-15 colon = test system: HCT-15 colon
HL-60(TB) leukemia = test system: HL-60(TB) leukemia
HOP-18 NSCLC = test system: HOP-18 NSCLC
HOP-62 NSCLC = test system: HOP-62 NSCLC
HOP-92 NSCLC = test system: HOP-92 NSCLC
HT29 colon = test system: HT29 colon
IGROV1 ovarian = test system: IGROV1 ovarian
K-562 leukemia = test system: K-562 leukemia
KM12 colon = test system: KM12 colon
KM20L2 colon = test system: KM20L2 colon
LOX IMVI melanoma = test system: LOX IMVI melanoma
M19-MEL melanoma = test system: M19-MEL melanoma
MALME-3M melanoma = test system: MALME-3M melanoma
MCF7 breast = test system: MCF7 breast
MOLT-4 leukemia = test system: MOLT-4 leukemia
NCI-H226 lung = test system: NCI-H226 lung
NCI-H23 lung = test system: NCI-H23 lung
NCI-H460 lung = test system: NCI-H460 lung
NCI-H522 lung = test system: NCI-H522 lung
NCI/ADR-RES ovarian = test system: NCI/ADR-RES ovarian
OVCAR-3 ovarian = test system: OVCAR-3 ovarian
OVCAR-4 ovarian = test system: OVCAR-4 ovarian
OVCAR-5 ovarian = test system: OVCAR-5 ovarian
OVCAR-8 ovarian = test system: OVCAR-8 ovarian
P388 leukemia = test system: P388 leukemia
P388/ADR leukemia = test system: P388/ADR leukemia
RPMI-8226 leukemia = test system: RPMI-8226 leukemia
RXF 393 renal = test system: RXF 393 renal
SF-268 CNS = test system: SF-268 CNS
SF-295 CNS = test system: SF-295 CNS
SF-539 CNS = test system: SF-539 CNS
SK-MEL-2 melanoma = test system: SK-MEL-2 melanoma
SK-MEL-28 melanoma = test system: SK-MEL-28 melanoma
SK-MEL-5 melanoma = test system: SK-MEL-5 melanoma
SK-OV-3 ovarian = test system: SK-OV-3 ovarian
SN12C renal = test system: SN12C renal
SN12K1 renal = test system: SN12K1 renal
SNB-19 CNS = test system: SNB-19 CNS
SNB-75 CNS = test system: SNB-75 CNS
SNB-78 CNS = test system: SNB-78 CNS
SW-620 colon = test system: SW-620 colon
U251 CNS = test system: U251 CNS
UACC-257 melanoma = test system: UACC-257 melanoma
UACC-62 melanoma = test system: UACC-62 melanoma
UO-31 renal = test system: UO-31 renal
XF 498 CNS = test system: XF 498 CNS

NC(N)=Nc1nc2ccccc2[nH]1
GI50 (A498 renal): 45.8 µg/mL (≈ 262 µM) | TGI (A498 renal): > 150 µg/mL | GI50 (A549 NSCLC): 61 µg/mL (≈ 348 µM) | TGI (A549 NSCLC): > 150 µg/mL | GI50 (CAKI-1 renal): 48.8 µg/mL (≈ 279 µM) | TGI (CAKI-1 renal): > 150 µg/mL | GI50 (CCRF-CEM leukemia): 4.49 µg/mL (≈ 25.6 µM) | TGI (CCRF-CEM leukemia): 111 µg/mL (≈ 635 µM) | GI50 (COLO 205 colon): 61.7 µg/mL (≈ 352 µM) | TGI (COLO 205 colon): > 150 µg/mL | GI50 (DLD-1 colon): 54.4 µg/mL (≈ 311 µM) | TGI (DLD-1 colon): > 150 µg/mL | GI50 (DMS 114 small cell lung): 10.5 µg/mL (≈ 59.8 µM) | TGI (DMS 114 small cell lung): 68 µg/mL (≈ 388 µM) | GI50 (DMS 273 small cell lung): 46.4 µg/mL (≈ 265 µM) | TGI (DMS 273 small cell lung): > 150 µg/mL | GI50 (EKVX NSCLC): 57.4 µg/mL (≈ 328 µM) | TGI (EKVX NSCLC): > 150 µg/mL | GI50 (HCC-2998 colon): 34.1 µg/mL (≈ 195 µM) | TGI (HCC-2998 colon): > 150 µg/mL | GI50 (HCT-116 colon): 49.3 µg/mL (≈ 282 µM) | TGI (HCT-116 colon): > 150 µg/mL | GI50 (HCT-15 colon): 80.9 µg/mL (≈ 462 µM) | TGI (HCT-15 colon): > 150 µg/mL | GI50 (HL-60(TB) leukemia): 3.87 µg/mL (≈ 22.1 µM) | TGI (HL-60(TB) leukemia): 17.2 µg/mL (≈ 98.4 µM) | outcome (HOP-18 NSCLC): inactive | GI50 (HOP-62 NSCLC): 43.4 µg/mL (≈ 248 µM) | TGI (HOP-62 NSCLC): 124 µg/mL (≈ 705 µM) | GI50 (HOP-92 NSCLC): 103 µg/mL (≈ 588 µM) | TGI (HOP-92 NSCLC): > 150 µg/mL | GI50 (HT29 colon): 51.3 µg/mL (≈ 293 µM) | TGI (HT29 colon): > 150 µg/mL | GI50 (IGROV1 ovarian): 23.7 µg/mL (≈ 135 µM) | TGI (IGROV1 ovarian): > 150 µg/mL | GI50 (K-562 leukemia): 27.6 µg/mL (≈ 157 µM) | TGI (K-562 leukemia): > 150 µg/mL | GI50 (KM12 colon): 53.1 µg/mL (≈ 303 µM) | TGI (KM12 colon): > 150 µg/mL | outcome (KM20L2 colon): inactive | GI50 (LOX IMVI melanoma): 43.8 µg/mL (≈ 250 µM) | TGI (LOX IMVI melanoma): > 150 µg/mL | GI50 (M19-MEL melanoma): 20.3 µg/mL (≈ 116 µM) | TGI (M19-MEL melanoma): 51 µg/mL (≈ 291 µM) | GI50 (MALME-3M melanoma): 47.4 µg/mL (≈ 271 µM) | TGI (MALME-3M melanoma): 47.4 µg/mL (≈ 271 µM) | GI50 (MCF7 breast): 1.05 µg/mL (≈ 6.01 µM) | TGI (MCF7 breast): 79.4 µg/mL (≈ 453 µM) | GI50 (MOLT-4 leukemia): 5.03 µg/mL (≈ 28.7 µM) | TGI (MOLT-4 leukemia): 37.3 µg/mL (≈ 213 µM) | GI50 (NCI-H226 lung): 55.3 µg/mL (≈ 315 µM) | TGI (NCI-H226 lung): > 150 µg/mL | GI50 (NCI-H23 lung): 121 µg/mL (≈ 691 µM) | TGI (NCI-H23 lung): > 150 µg/mL | GI50 (NCI-H460 lung): 36.5 µg/mL (≈ 209 µM) | TGI (NCI-H460 lung): > 150 µg/mL | GI50 (NCI-H522 lung): 5.66 µg/mL (≈ 32.3 µM) | TGI (NCI-H522 lung): 46.5 µg/mL (≈ 265 µM) | GI50 (NCI/ADR-RES ovarian): 6.44 µg/mL (≈ 36.8 µM) | TGI (NCI/ADR-RES ovarian): > 150 µg/mL | GI50 (OVCAR-3 ovarian): 38.4 µg/mL (≈ 219 µM) | TGI (OVCAR-3 ovarian): > 150 µg/mL | GI50 (OVCAR-4 ovarian): 22.1 µg/mL (≈ 126 µM) | TGI (OVCAR-4 ovarian): 55.5 µg/mL (≈ 317 µM) | GI50 (OVCAR-5 ovarian): 27.8 µg/mL (≈ 159 µM) | TGI (OVCAR-5 ovarian): > 150 µg/mL | GI50 (OVCAR-8 ovarian): 76.5 µg/mL (≈ 437 µM) | TGI (OVCAR-8 ovarian): > 150 µg/mL | GI50 (P388 leukemia): 4.46 µg/mL (≈ 25.4 µM) | TGI (P388 leukemia): 20.5 µg/mL (≈ 117 µM) | GI50 (P388/ADR leukemia): 6.34 µg/mL (≈ 36.2 µM) | TGI (P388/ADR leukemia): 41.5 µg/mL (≈ 237 µM) | GI50 (RPMI-8226 leukemia): 2.98 µg/mL (≈ 17 µM) | TGI (RPMI-8226 leukemia): 29.7 µg/mL (≈ 170 µM) | GI50 (RXF 393 renal): 72.5 µg/mL (≈ 414 µM) | TGI (RXF 393 renal): > 150 µg/mL | GI50 (SF-268 CNS): 128 µg/mL (≈ 732 µM) | TGI (SF-268 CNS): > 150 µg/mL | GI50 (SF-295 CNS): 34.4 µg/mL (≈ 197 µM) | TGI (SF-295 CNS): 111 µg/mL (≈ 633 µM) | GI50 (SF-539 CNS): 33.7 µg/mL (≈ 192 µM) | TGI (SF-539 CNS): > 150 µg/mL | GI50 (SK-MEL-2 melanoma): 95 µg/mL (≈ 542 µM) | TGI (SK-MEL-2 melanoma): > 150 µg/mL | GI50 (SK-MEL-28 melanoma): 135 µg/mL (≈ 769 µM) | TGI (SK-MEL-28 melanoma): > 150 µg/mL | GI50 (SK-MEL-5 melanoma): 31.1 µg/mL (≈ 178 µM) | TGI (SK-MEL-5 melanoma): 99 µg/mL (≈ 565 µM) | GI50 (SK-OV-3 ovarian): 150 µg/mL (≈ 856 µM) | TGI (SK-OV-3 ovarian): > 150 µg/mL | GI50 (SN12C renal): 72.9 µg/mL (≈ 416 µM) | TGI (SN12C renal): > 150 µg/mL | GI50 (SN12K1 renal): 37.6 µg/mL (≈ 215 µM) | TGI (SN12K1 renal): > 150 µg/mL | GI50 (SNB-19 CNS): 137 µg/mL (≈ 782 µM) | TGI (SNB-19 CNS): > 150 µg/mL | GI50 (SNB-75 CNS): 150 µg/mL (≈ 856 µM) | TGI (SNB-75 CNS): > 150 µg/mL | GI50 (SNB-78 CNS): 150 µg/mL (≈ 856 µM) | TGI (SNB-78 CNS): > 150 µg/mL | GI50 (SW-620 colon): 60.6 µg/mL (≈ 346 µM) | TGI (SW-620 colon): > 150 µg/mL | GI50 (U251 CNS): 55.3 µg/mL (≈ 316 µM) | TGI (U251 CNS): > 150 µg/mL | GI50 (UACC-257 melanoma): 72.4 µg/mL (≈ 413 µM) | TGI (UACC-257 melanoma): > 150 µg/mL | GI50 (UACC-62 melanoma): 36.2 µg/mL (≈ 207 µM) | TGI (UACC-62 melanoma): > 150 µg/mL | GI50 (UO-31 renal): 20 µg/mL (≈ 114 µM) | TGI (UO-31 renal): 107 µg/mL (≈ 613 µM) | outcome (XF 498 CNS): inactive
